Read-outs that look alike come from different tables or passages of the source.
Assays:
CDK9/CyclinT1 = target: T1, CDK9/CyclinT1 (Homo sapiens, UniProt P50750); assay: CDK9/CycT1 high ATP kinase assay (TR-FRET); type: biochemical; conditions: 2 mM ATP (high ATP); median; read-out: CDK9/CyclinT1, 2 mM ATP (high ATP) IC50 - [mol/l] (median)
T1 construct: Recombinant full-length His-tagged human CDK9 and CycT1; His-tag; purchased Life Technologies PV4131; host or cells: insect cells
Method: 2.5 CDK9/CycT1 High ATP Kinase Assay
CDK9/CycT1 -inhibitory activity of compounds of the present invention at a high ATP concentration after preincubation of enzyme and test compounds was quantified employing the CDK9/CycT1 TR-FRET assay as described in the following paragraphs.
Recombinant full-length His-tagged human CDK9 and CycT1, expressed in insect cells and purified by Ni-NTA affinity chromatography, were purchased from Life Technologies (Cat. No PV4131). As substrate for the kinase reaction biotinylated peptide biotin-Ttds-YISPLKSPYKISEG (C-terminus in amide form) was used which can be purchased e.g. form the company JERINI peptide technologies (Berlin, Germany).
For the assay 50 nanoL of a 100 fold concentrated solution of the test compound in DMSO was pipetted into either a black low volume 384 well microtiter plate or a black 1536 well microtiter plate (both Greiner Bio-One, Frickenhausen, Germany), 2 microL of a solution of CDK9/CycT1 in aqueous assay buffer [50 millimol/L Tris/HCl pH 8.0, 10 millimol/L MgCl2, 1.0 millimol/L dithiothreitol, 0.1 millimol/L sodium ortho-vanadate, 0.01% (v/v) Nonidet-P40 (Sigma)] were added and the mixture was incubated for 15 min at 22° C. to allow pre-binding of the test compounds to the enzyme before the start of the kinase reaction. Then the kinase reaction was started by the addition of 3 microL of a solution of adenosine-tri-phosphate (ATP, 3.3 millimol/L=>final conc. in the 5 microL assay volume is 2 millimol/L) and substrate (1.25 micromol/L =>final conc. in the 5 microL assay volume is 0.75 micromol/L) in assay buffer and the resulting mixture was incubated for a reaction time of 25 min at 22° C. The concentration of CDK9/CycT1 was adjusted depending of the activity of the enzyme lot and was chosen appropriate to have the assay in the linear range, typical concentrations were in the range of 0.5 microg/mL. The reaction was stopped by the addition of 3 microL of a solution of TR-FRET detection reagents (0.33 micromol/L streptavidine-XL665 [Cisbio Bioassays, Codolet, France] and 1.67 nanomol/L anti-RB(pSer807/pSer811)-antibody from BD Pharmingen [#558389] and 2 nanomol/L LANCE EU-W1024 labeled anti-mouse IgG antibody [Perkin-Elmer, product no. AD0077]) in an aqueous EDTA-solution (167 millimol/L EDTA, 0.2% (w/v) bovine serum albumin in 100 millimol/L HEPES pH 7.5).
The resulting mixture was incubated 1 h at 22° C. to allow the formation of complex between the phosphorylated biotinylated peptide and the detection reagents. Subsequently the amount of phosphorylated substrate was evaluated by measurement of the resonance energy transfer from the Eu-chelate to the streptavidine-XL. Therefore, the fluorescence emissions at 620 nm and 665 nm after excitation at 350 nm was measured in a TR-FRET reader, e.g. a Pherastar (BMG Labtechnologies, Offenburg, Germany) or a Viewlux (Perkin-Elmer). The ratio of the emissions at 665 nm and at […] was taken as the measure for the amount of phosphorylated substrate. The data were normalised (enzyme reaction without inhibitor=0% inhibition, all other assay components but no enzyme=100% inhibition).

[1] = test system: CAL-120 human breast adenocarcinoma cells; assay: Proliferation assay CAL-120 (crystal violet); type: cell-based; conditions: CAL-120 cells, 4 days, median, read-out: Prolif-CAL-120— IC50 - [mol/l] (median)
Method: 4. Proliferation assay: MDA-MB-231, CAL-120
Human tumour cells were originally obtained from the American Type Culture Collection (ATCC), or from the Deutsche Sammlung von Mikroorganismen and Zellkulturen (DSMZ, German Collection of Microorganisms and Cell Cultures). Cultivated tumour cells (CAL-120, human breast adenocarcinoma cells, DSMZ ACC-459; MDA-M B-231, human breast cancer cells, ATCC HTB-26) were plated at a density of 4,000 cells/well in a 96-well multititer plate in 200 microL of their respective growth medium supplemented 10% fetal calf serum. After 24 hours, the cells of one plate (zero-point plate) were stained with crystal violet (see below), while the medium of the other plates was supplemented with the test substances in various concentrations (0 micromol/L, as well as in the range of 0.01-10 micromol/L; the final concentration of the solvent dimethyl sulfoxide was adjusted to 0.1%) using a Tecan HP D300 Digital Dispenser. The cells were incubated for 4 days in the presence of test substances. Cell proliferation was determined by staining the cells with crystal violet: the cells were fixed by adding 20 microL/measuring point of an 11% glutaric aldehyde solution for 15 minutes at room temperature. After three washing cycles of the fixed cells with water, the plates were dried at room temperature. The cells were stained by adding 100 microL/measuring point of a 0.1% crystal violet solution (pH 3.0). After three washing cycles of the stained cells with water, the plates were dried at room temperature. The dye was dissolved by adding 100 microL/measuring point of a 10% acetic acid solution. The extinction was determined by photometry at a wavelength of 595 nm. The change of cell number, in percent, was calculated by normalization of the measured values to the extinction values of the zero-point plate(=0%) and the extinction of the untreated (0 μM) cells(=100%). The IC50 values (inhibitory concentration at 50% of maximal effect) were determined by means of a 4 parameter fit.

T1 sequence (P50750 whole entry): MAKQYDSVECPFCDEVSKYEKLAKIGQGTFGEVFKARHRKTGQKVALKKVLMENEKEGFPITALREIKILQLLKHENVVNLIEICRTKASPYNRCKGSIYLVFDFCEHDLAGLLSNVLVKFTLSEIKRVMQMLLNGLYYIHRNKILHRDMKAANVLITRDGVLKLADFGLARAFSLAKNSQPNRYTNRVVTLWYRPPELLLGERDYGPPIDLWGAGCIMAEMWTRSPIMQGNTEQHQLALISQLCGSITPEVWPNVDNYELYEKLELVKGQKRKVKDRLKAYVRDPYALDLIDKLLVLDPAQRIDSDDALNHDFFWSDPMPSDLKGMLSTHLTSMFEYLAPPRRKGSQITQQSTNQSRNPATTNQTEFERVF
T1 sequence (O60563 whole entry partner): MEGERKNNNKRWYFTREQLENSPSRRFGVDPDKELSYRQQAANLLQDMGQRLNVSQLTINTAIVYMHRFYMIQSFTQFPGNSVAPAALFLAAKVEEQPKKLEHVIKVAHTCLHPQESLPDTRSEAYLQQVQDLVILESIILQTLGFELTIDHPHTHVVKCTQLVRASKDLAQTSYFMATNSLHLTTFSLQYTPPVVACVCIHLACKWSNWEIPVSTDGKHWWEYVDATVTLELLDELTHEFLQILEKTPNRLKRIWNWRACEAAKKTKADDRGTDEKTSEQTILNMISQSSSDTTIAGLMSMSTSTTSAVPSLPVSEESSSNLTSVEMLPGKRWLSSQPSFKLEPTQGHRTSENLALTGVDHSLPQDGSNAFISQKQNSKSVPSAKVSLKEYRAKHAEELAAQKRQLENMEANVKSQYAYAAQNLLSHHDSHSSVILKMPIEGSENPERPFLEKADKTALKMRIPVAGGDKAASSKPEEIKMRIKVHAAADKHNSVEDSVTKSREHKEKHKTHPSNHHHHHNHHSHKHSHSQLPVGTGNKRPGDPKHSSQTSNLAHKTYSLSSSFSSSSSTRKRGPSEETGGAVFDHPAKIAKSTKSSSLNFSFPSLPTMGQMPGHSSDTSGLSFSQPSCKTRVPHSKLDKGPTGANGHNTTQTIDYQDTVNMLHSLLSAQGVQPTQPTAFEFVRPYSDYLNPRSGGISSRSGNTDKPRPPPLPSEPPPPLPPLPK

Row | IC50 (CDK9/CyclinT1) [nM] | IC50 ([1]; Homo sapiens, CAL-120, 96 h) [nM] | IC50 [1] [nM] | SMILES
1 | > 20000 | 6.78 |  | CN1CCC(n2nc(NCc3nc4c(F)c(F)ccc4[nH]3)c3ncc(C4CC4)nc32)CC1 [Example 9, 6-cyclopropyl-N-[(4,5-difluoro-1H-benzimidazol-2-yl)methyl]-1-(1-methylpiperidin-4-yl)-1H-pyrazolo[3,4-b]pyrazin-3-amine]
2 | > 20000 | 301 |  | CC(CCN(C)C)n1nc(NCc2nc3ccccc3[nH]2)c2ncc(C3CC3)nc21 (racemic) [Example 62, (±)-N-[(1H-benzimidazol-2-yl)methyl]-6-cyclopropyl-1-[4-(dimethylamino)butan-2-yl]-1H-pyrazolo[3,4-b]pyrazin-3-amine]
3 | > 20000 | 10.5 |  | CN1CCC(n2nc(NCc3nc4c(C(F)(F)F)cccc4[nH]3)c3ncc(C4CC4)nc32)CC1 [Example 7, 6-cyclopropyl-1-(1-methylpiperidin-4-yl)-N-{[4-(trifluoromethyl)-1H-benzimidazol-2-yl]methyl}-1H-pyrazolo[3,4-b]pyrazin-3-amine]
4 | > 20000 |  | 71.4 | CN1CCC(n2nc(NCc3nc4ccccc4[nH]3)c3ncc(C4CC4)nc32)C1 (single isomer, unassigned) [Example 79, (−) or (+)-N-[(1H-benzimidazol-2-yl)methyl]-6-cyclopropyl-1-(1-methylpyrrolidin-3-yl)-1H-pyrazolo[3,4-b]pyrazin-3-amine]
5 | > 20000 | 70.3 |  | c1ccc2[nH]c(CNc3nn(C4CCOC4)c4nc(C5CC5)cnc34)nc2c1 (single isomer, unassigned) [Example 17, (+) or (−)-N-[(1H-benzimidazol-2-yl)methyl]-6-cyclopropyl-1-(oxolan-3-yl)-1H-pyrazolo[3,4-b]pyrazin-3-amine]
6 | > 20000 | 22.5 |  | Cc1cccc2[nH]c(CNc3nn(C4CCOCC4)c4nc(C5CC5)cnc34)nc12 [Example 33, 6-cyclopropyl-N-[(4-methyl-1H-benzimidazol-2-yl)methyl]-1-(oxan-4-yl)-1H-pyrazolo[3,4-b]pyrazin-3-amine]
7 | > 20000 | 266 |  | CN1CCC(n2nc(NCc3nc4cc(SC(F)(F)F)ccc4[nH]3)c3ncc(C4CC4)nc32)CC1 [Example 27, 6-cyclopropyl-1-(1-methylpiperidin-4-yl)-N-({5-[(trifluoromethyl)sulfanyl]-1H-benzimidazol-2-yl}methyl)-1H-pyrazolo[3,4-b]pyrazin-3-amine]
8 | > 20000 |  |  | c1ccc2[nH]c(CNc3nn(C4COC4)c4nc(C5CC5)cnc34)nc2c1 [Example 55, N-[(1H-benzimidazol-2-yl)methyl]-6-cyclopropyl-1-(oxetan-3-yl)-1H-pyrazolo[3,4-b]pyrazin-3-amine]
9 | > 20000 | 96.4 |  | CC(C)n1nc(NCc2nc3ccccc3[nH]2)c2ncc(C3CC3)nc21 [Example 14, N-[(1H-benzimidazol-2-yl)methyl]-6-cyclopropyl-1-(propan-2-yl)-1H-pyrazolo[3,4-b]pyrazin-3-amine]
10 | > 20000 | 147 |  | COCCn1nc(NCc2nc3ccccc3[nH]2)c2ncc(C3CC3)nc21 [Example 65, N-[(1H-benzimidazol-2-yl)methyl]-6-cyclopropyl-1-(2-methoxyethyl)-1H-pyrazolo[3,4-b]pyrazin-3-amine]
11 | > 20000 |  | 878 | CC(CCN(C)C)n1nc(NCc2nc3ccccc3[nH]2)c2ncc(C3CC3)nc21 (single isomer, unassigned) [Example 63, (+) or (−)-N-[(1H-benzimidazol-2-yl)methyl]-6-cyclopropyl-1-[4-(dimethylamino)butan-2-yl]-1H-pyrazolo[3,4-b]pyrazin-3-amine]
12 | > 20000 | 52.4 |  | O[C@H]1C[C@@H](Cn2nc(NCc3nc4ccccc4[nH]3)c3ncc(C4CC4)nc32)C1 [Example 71, cis-3-[(3-{[(1H-benzimidazol-2-yl)methyl]amino}-6-cyclopropyl-1H-pyrazolo[3,4-b]pyrazin-1-yl)methyl]cyclobutan-1-ol]
13 | > 20000 | 4.21 |  | CN1CCC(n2nc(NCc3nc4cc(Cl)ccc4[nH]3)c3ncc(C4CC4)nc32)CC1 [Example 22, N-[(5-chloro-1H-benzimidazol-2-yl)methyl]-6-cyclopropyl-1-(1-methylpiperidin-4-yl)-1H-pyrazolo[3,4-b]pyrazin-3-amine]
14 | ≥ 12700 |  |  | Cc1ccc2[nH]c(CNc3nn(C4CCN(C)CC4)c4nc(C5CC5)cnc34)nc2c1 [Example 6, 6-cyclopropyl-N-[(5-methyl-1H-benzimidazol-2-yl)methyl]-1-(1-methylpiperidin-4-yl)-1H-pyrazolo[3,4-b]pyrazin-3-amine]
15 | > 20000 |  |  | O[C@H]1CC[C@@H](n2nc(NCc3nc4ccccc4[nH]3)c3ncc(C4CC4)nc32)CC1 [Example 51, cis-4-(3-{[(1H-benzimidazol-2-yl)methyl]amino}-6-cyclopropyl-1H-pyrazolo[3,4-b]pyrazin-1-yl)cyclohexan-1-ol]
16 | > 20000 |  |  | CC1(C)CC(n2nc(NCc3nc4ccccc4[nH]3)c3ncc(C4CC4)nc32)CC(C)(C)O1 [Example 52, N-[(1H-benzimidazol-2-yl)methyl]-6-cyclopropyl-1-(2,2,6,6-tetramethyloxan-4-yl)-1H-pyrazolo[3,4-b]pyrazin-3-amine]
17 | > 20000 |  |  | O=CO.c1ccc(-n2nc(NCc3nc4ccccc4[nH]3)c3ncc(C4CC4)nc32)cc1 [Example 13, formic acid—N-[(1H-benzimidazol-2-yl)methyl]-6-cyclopropyl-1-phenyl-1H-pyrazolo[3,4-b]pyrazin-3-amine (1/1)]
18 | > 20000 |  |  | Cn1nc(NCc2nc3ccccc3[nH]2)c2ncc(C3CC3)nc21 [Example 15, N-[(1H-benzimidazol-2-yl)methyl]-6-cyclopropyl-1-methyl-1H-pyrazolo[3,4-b]pyrazin-3-amine]
19 | > 20000 |  |  | O[C@H]1CC[C@H](n2nc(NCc3nc4cc(F)ccc4[nH]3)c3ncc(C4CC4)nc32)CC1 [Example 56, trans-4-(6-cyclopropyl-3-{[(5-fluoro-1H-benzimidazol-2-yl)methyl]amino}-1H-pyrazolo[3,4-b]pyrazin-1-yl)cyclohexan-1-ol]
20 | > 20000 |  |  | c1ccc2[nH]c(CNc3nn(C4CC5(COC5)C4)c4nc(C5CC5)cnc34)nc2c1 [Example 54, N-[(1H-benzimidazol-2-yl)methyl]-6-cyclopropyl-1-(2-oxaspiro[3.3]heptan-6-yl)-1H-pyrazolo[3,4-b]pyrazin-3-amine]
